One series deals with T1, Acetylcholinesterase (Bos taurus, UniProt P23795).
T1 sequence (P23795 whole entry): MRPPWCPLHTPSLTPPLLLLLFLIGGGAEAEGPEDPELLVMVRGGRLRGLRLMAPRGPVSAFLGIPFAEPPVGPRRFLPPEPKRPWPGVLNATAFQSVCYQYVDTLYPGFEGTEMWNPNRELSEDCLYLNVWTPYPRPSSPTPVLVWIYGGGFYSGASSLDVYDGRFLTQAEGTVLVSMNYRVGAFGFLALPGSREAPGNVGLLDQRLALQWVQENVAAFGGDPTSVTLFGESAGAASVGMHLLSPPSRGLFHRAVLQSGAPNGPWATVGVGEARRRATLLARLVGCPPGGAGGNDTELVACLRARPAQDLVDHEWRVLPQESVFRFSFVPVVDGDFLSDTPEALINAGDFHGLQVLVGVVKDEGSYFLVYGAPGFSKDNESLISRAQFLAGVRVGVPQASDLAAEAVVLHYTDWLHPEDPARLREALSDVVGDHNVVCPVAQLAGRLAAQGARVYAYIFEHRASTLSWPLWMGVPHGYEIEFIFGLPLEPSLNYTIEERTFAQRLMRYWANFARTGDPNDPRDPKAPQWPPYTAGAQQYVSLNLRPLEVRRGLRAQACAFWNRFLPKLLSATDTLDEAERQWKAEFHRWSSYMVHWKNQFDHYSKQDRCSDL
Kind of series: Binding affinity towards Acetylcholinesterase from fetal bovine serum.

A further series is filed under the species Rattus norvegicus. The experiment in a line: Effect of pretreatment on the survival of the rat embryonic forebrain neurons when exposed to glutamate. It counts as functional.
A short description of series [1]: Half life period was determined. It counts as ADME. The following applies: rat.

pKi: −log10 of the molar value.

Ki, Control and half-life data for six compounds are collected here from ChEMBL document CHEMBL1132802, “Synthesis, chiral chromatographic separation, and biological activities of the enantiomers of 10,10-dimethylhuperzine A” (Bioorg Med Chem Lett, 2000).

As a reminder, the pKi is −log10 of the Ki, conventionally taken in molar units. Lower therefore signals a high Ki. A word on the half-life: it is how long it takes for the measured level to halve.

On Acetylcholinesterase, `C/C=C1\C2C=C(C)C[C@]1(N)c1ccc(O)nc1C2(C)C` (stereo in doubt; form 1) showed a negative-log Ki (pKi) of 7.51.

Consider `C/C=C1\C2C=C(C)C[C@]1(N)c1ccc(O)nc1C2(C)C.NC(CCC(=O)O)C(=O)O` (stereo in doubt; form 2), for which the Control in the series listed under Rattus norvegicus came out at 71.7%.

`C/C=C1\C2C=C(C)C[C@]1(N)c1ccc(O)nc1C2(C)C.NC(CCC(=O)O)C(=O)O` (stereo in doubt; form 3): the Control in the series listed under Rattus norvegicus is on record as 71.3%.

For the compound `C/C=C1\C2C=C(C)C[C@]1(N)c1ccc(O)nc1C2(C)C` (stereo in doubt; form 4), the negative logarithm of the Ki (pKi) on Acetylcholinesterase is 8.11.

`N[C@@H](CCC(=O)O)C(=O)O` [GLUTAMIC ACID]: the Control in the series filed under Rattus norvegicus worked out at 43.7%.

The compound `C/C=C1\[C@H]2C=C(C)C[C@]1(N)c1ccc(=O)[nH]c1C2` [HUPERZINE A] came in with a half-life in series [1] of 35 min.
